The source of these data is patent US5446147A (Trustees of the University of Pennsylvania, priority 1992, dated 1995).

One data set deals with Dopamine D-2 Receptors. Particulars: Table II, known dopamine D-2 receptor ligands; cited from earlier work.
The nature of data set [1]: In vivo biodistribution in rats (organ uptake). Particulars: iv; for liver uptake (in words): first 30 min. The arrangement: species or system rat. The method, then:
Male Sprague-Dawley rats (225-300 g), which were allowed free access to food and water, were used for the vivo biodistribution study. […] The organs of interest were removed and weighed and the radioactivity was counted with a Beckman gamma automatic counter (Model 4000). The percent dose per organ was calculated by a comparison of the tissue counts to suitably diluted aliquots of the injected material. Total activities of blood and muscle were calculated under the assumption that they were 7% and 40% of the total body weight, respectively.

Data set [2] deals with dopamine receptors (striatum). The experiment in a line: Regional brain distribution in rats (uptake ratio of region to cerebellum). It counts as in vivo, rat. The note with it: iv. The method, then:
Male Sprague-Dawley rats (225-300 g), which were allowed free access to food and water, were used for the vivo biodistribution study. While under halothane anesthesia, 0.2 mL of a saline solution containing [^125 I]FIDA 8 or 10 (8-10 μCi) was injected […] into the femoral vein of rats, and they were sacrificed at various time points postinjection by cardiac excision under halothane anesthesia. The organs of interest were removed and weighed and the radioactivity was counted with a Beckman gamma automatic counter (Model 4000). The percent dose per organ was calculated by a comparison of the tissue counts to suitably diluted aliquots of the injected material. Total activities of blood and muscle were calculated under the assumption that they were 7% and 40% of the total body weight, respectively.
Regional brain distribution in rats was obtained after an injection of [^125 I]FIDA 8 or 10. By dissecting, weighing, and counting samples from different brain regions (cortex, striatum, hippocampus, and cerebellum), the percent dose/gram of sample was calculated by comparing the sample counts with the count of the diluted initial dose. The uptake ratio of each region was obtained by dividing the percent dose/gram of each region by that to the cerebellum.

Data set [3] deals with T1, dopamine D2 receptor (Rat Striatal Membranes) (Rattus norvegicus, UniProt P61169).
T1 construct: Rat tissue homogenates were prepared as described previously; from tissue; host or cells: rat striatal membranes (tissue homogenate)
The experiment in a line: Competition for ^125 I-FIDA-2 binding to rat striatal membranes. On the procedure: (§1) Rat tissue homogenates were prepared as described previously. Murphy, R. A., et al., J. Med. Chem. 33, 171-178 (1990). The binding assays were performed by incubating 50 μL of tissue preparations containing 40-60 μg of protein with appropriate amounts of ^125 I-labeled ligand and competitors in a total volume of 0.2 mL of the assay buffer. After an incubation period of 15 min at 37° C. (with stirring), the samples were rapidly filtered in a cell harvester (Brandel M-24R) under vacuum through Whatman GF/B glass-fiber filters pretreated with […] protamine base and washed with 3×5 mL of cold (4° C.) 50 mM Tris-HCI buffer, pH 7.4. The nonspecific binding was obtained in the presence of 10 μM (+)butaclamol. The filters were counted in a γ counter (Beckman 5500) at an efficiency of 70%. Both Scatchard and competition experiments were analyzed with the iterative nonlinear least squares curve-fitting program LIGAND.

The target in data set [4] is T1, dopamine D2 receptor (Rat Striatal Membranes). The experiment in a line: Competition for ^125 I-FIDA-1 binding to rat striatal membranes. On the procedure: as §1
[5] abbreviates: rat striatal membranes, 15 min at 37° C., nonspecific binding with 10 μM (+)butaclamol, read-out: Ki, inhibition constant on ^125 I-FIDA-2 binding.

“Also recorded” adds a separate entry of the source.

Broadly, the Kd is the equilibrium constant for the complex coming apart. As a reminder, the Ki is a measure of affinity in units of concentration, obtained from inhibition or displacement.

T1 sequence (P61169 whole entry): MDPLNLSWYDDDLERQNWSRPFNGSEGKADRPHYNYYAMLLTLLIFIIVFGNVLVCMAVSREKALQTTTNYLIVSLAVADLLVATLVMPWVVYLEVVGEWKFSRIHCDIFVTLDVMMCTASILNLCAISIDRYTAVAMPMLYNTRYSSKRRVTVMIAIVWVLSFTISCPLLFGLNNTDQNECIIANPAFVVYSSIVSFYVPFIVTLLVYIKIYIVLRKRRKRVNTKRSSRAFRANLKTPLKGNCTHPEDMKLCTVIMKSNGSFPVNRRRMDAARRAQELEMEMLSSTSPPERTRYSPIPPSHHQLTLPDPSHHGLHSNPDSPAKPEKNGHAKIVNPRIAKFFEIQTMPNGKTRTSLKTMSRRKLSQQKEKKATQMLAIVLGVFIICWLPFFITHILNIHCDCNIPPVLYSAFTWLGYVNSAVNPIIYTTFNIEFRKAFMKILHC

Turning to `CCN1CCC[C@H]1CNC(=O)c1c(O)c(Cl)cc(Cl)c1OC` [Raclopride], the Kd on Dopamine D-2 Receptors is 10 nM.
For `CCN1CCC[C@H]1CNC(=O)c1c(O)c(I)cc(OC)c1OC` [Ioxipride], the Kd at Dopamine D-2 Receptors is 0.019 nM.
With `COc1cc([123I])cc(C(=O)NC[C@H]2CCCN2Cc2ccc(F)cc2)c1OC` [[^123 I]FIDA2], in data set [1], the “brain uptake (in words)” value was “better brain uptake in rats than [^123 I]FIDA1; also recorded: higher brain uptake than [^123 I]FIDA1”, the “liver clearance (in words)” value is “slower than it was for [^123 I]FIDA1” and the “liver uptake (in words)” value is listed as “High initial uptake in the liver”. Also, the brain uptake in data set [1] (time not stated) is on record as 0.98 % dose/organ. For the same molecule, in data set [2] (2 min), the ST/CB ratio was found to be 1.2. The ST/CB ratio in data set [2] (120 min) came out at 25.2.
In the case of `CCN1CCC[C@H]1CNC(=O)c1cc(I)cc2c1OCC2` [IBF], the Kd at Dopamine D-2 Receptors is 0.106 nM.
Turning to `CCN1CCC[C@H]1CNC(=O)c1c(OC)ccc(I)c1O` [IBZM], the Kd on Dopamine D-2 Receptors is 0.426 nM.
`COC(=O)[C@@H]1[C@H]2C[C@H]3c4[nH]c5ccccc5c4CCN3C[C@@H]2CC[C@@H]1O` [yohimbine]: the Ki in data set [3] (setting [5]) was determined as 505 ± 70 nM.
Consider `COc1cc(I)cc(C(=O)NC[C@H]2CCCN2Cc2ccc(F)cc2)c1OC` [FIDA2, R(+)-2,3-dimethoxy-N-[(1-(4' -fluorobenzyl)-2-pyrrolidinyl)methyl]-5-iodobenzamide], for which the “binding specificity and selectivity (FIDA2 radioligand)” value in data set [3] (competition study with various types of receptor ligands) is listed as “specifically binds to the dopamine D2 receptor with great selectivity”.
Turning to `CCN1CCC[C@H]1CNC(=O)c1cc([123I])cc(OC)c1OCCF` [[^123 I]FIDA1], in data set [1], the “brain uptake (in words)” value is “moderate brain uptake”, the “liver clearance (in words)” value is listed as “rapidly washed out at 1 h postinjection” and the “liver uptake (in words)” value is recorded as “remained high for the first 30 min”. Besides, the “brain washout (in words)” value in data set [1] (1 h after injection) is “a large portion of the radioactivity has washed out from the brain; also recorded: the radioactivity had washed out from the brain”. Moreover, in data set [2], the “increase in target to nontarget ratio vs. time, hippocampus and cortex” value was “not observed”; the “retention in striatum (in words)” value is “prolonged retention”. In addition, the “striatum/cerebellum (ST/CB) ratio” value in data set [2] (30 min) is 8.26. For the same molecule, in data set [2] (60 min), the “striatum/cerebellum (ST/CB) ratio” value is recorded as 29.3. Further, in data set [2] (printed 10 min), the “striatum/cerebellum (ST/CB) ratio” value amounted to 60.7.
For the molecule `COc1cccc(OC)c1OCCNCC1COc2ccccc2O1` (stereo not drawn) [WB 4101], the Ki was 33.1 ± 1.5 nM in data set [4] (rat striatal membranes, 15 min at 37° C., nonspecific binding with 10 μM (+)butaclamol, read-out: Ki, inhibition constant on ^125 I-FIDA-1 binding) and 23.3 ± 2.2 nM in data set [3] (setting [5]).
As for `CCN1CCC[C@H]1CNC(=O)c1cc(CCCF)cc(OC)c1OC` [Fluoropropyl-Epidepride], the Kd at Dopamine D-2 Receptors is 0.03 nM.
As for `CCN1CCC[C@H]1CNC(=O)c1cc(I)cc(OC)c1OC` [Epidepride], the Kd on Dopamine D-2 Receptors is 0.024 nM.
Regarding `CN1[C@@H]2CC[C@H]1C[C@@H](OC(=O)C(CO)c1ccccc1)C2` (stereo partly drawn) [atropine], the Ki in data set [4] and in data set [3] was more than 10000 nM throughout.
